Results reported in paper PMC6273578, “Design, Synthesis and Biological Evaluation of Benzohydrazide Derivatives Containing Dihydropyrazoles as Potential EGFR Kinase Inhibitors” (Molecules, 2016).

Legend:
[1] = molecular target: epidermal growth factor receptor (EGFR) (Homo sapiens, UniProt P00533); assay: EGFR kinase inhibition, solid-phase ELISA assay
Description: All these newly synthesized compounds were evaluated for their inhibitory activities against EGFR kinases using a solid-phase ELISA assay.
EGFR tyrosine kinase activity was determined by an enzyme linked-immunosorbent assay (ELISA) in 96-well plates precoated in a 10 mL reaction volume including 4 mL diluted test compounds, 4 mL substrate and 2 mL ATP. […] The plates were then aspirated and washed twice with 200 mL 0.9% (w/v) NaCl, and incorporation of Pi was determined with an LX300 Epson Diagnostic microplate reader. […] The experiments were replicated at least three times to verify the methodology reproducibility when using the above-mentioned conditions.

[2] = system: MCF-7 cells; assay: MTT antiproliferative assay, MCF-7; assay type: cell-based, human; settings: Homo sapiens, MCF7, read-out: In vitro antiproliferative activity IC50, MCF-7
Description: (§1) IC50 values of the test compounds against A549, MCF-7, Hela and HepG2 cells were obtained from State Key Laboratory of Pharmaceutical Biotechnology, Nanjing University, and were determined by a standard (MTT)-based colorimetric assay (Beyotime Inst. Biotech., Nanjing, China). Tumor cell lines were grown to mid-log phase and then diluted to […] making sure they were seeded in 96-well plates (Philas, Nanjing, China) at a density of 5 × 10^3–1 × 10^4 cells per well. The outer wells containing 1 × PBS solution of the plate are not used for the assay to avoid the possibility of edge effects. The plate was incubated at 37 °C in a 5% CO2 incubator in DMEM containing 10% fetal bovine serum (FBS, Gibco, Waltham, MA, USA) for 24 h. Then, we added a 100-μL series concentration of drug-containing medium into the wells to maintain the final concentration of drug as 100, 10, 1 and 0.1 μmol/L. After 12 h, cell survival was determined by the addition of a MTT (3-(4,5-dimethylthiazol-2-yl)-2,5-diphenyl trtrazolium bromide) solution (10 μL of 5 mg/mL MTT in 1 × PBS). We waited for 4 h proliferation, discarded the medium and quickly added 150 μL DMSO per well, shaking the plates well for 10 min to ensure complete dissolution. Optical absorbance was measured at 570 nm on a microplate reader (Bio-Rad, Hercules, CA, USA). Survival ratios are expressed in percentages with respect to untreated cells. The experiments were replicated at least three times to verify the methodology reproducibility when using the above-mentioned conditions.

[3] = system: HepG2 cells; assay: MTT antiproliferative assay, HepG2; assay type: cell-based, human; settings: Homo sapiens, read-out: In vitro antiproliferative activity IC50, HepG2
Description: as §1

[4] = system: HeLa cells; assay: MTT antiproliferative assay, HeLa; assay type: cell-based, human; settings: Homo sapiens, read-out: In vitro antiproliferative activity IC50, HeLa
Description: as §1

[5] = system: HeLa cells; assay: Cell apoptosis assay by flow cytometry (Annexin V-FITC/PI); assay type: cell-based, human; settings: 24 h
Description: To verify whether the inhibition of cell growth of HeLa cell lines was related to cell apoptosis, we decided to use flow cytometry with an Annexin V-FITC/PI Apoptosis Detection Kit to […] the HeLa cell apoptosis with compound H20.
For Annexin V/PI assays, HeLa cells were stained with Annexin VFITC and PI and then monitored for apoptosis by flow cytometry. Briefly, 5 × 10^3 cells were seeded in 6-well plates for 24 h and then were treated with H20 (2.0, 4.0, 6.0, 8.0 μM) for 24 h. Then, cells were collected and washed twice with PBS and stained with 5 μL Annexin V-FITC and 5 μL PI (5 μg/mL) in 1× binding buffer (10 mM HEPES, pH 7.4, 140 mM […], 2.5 mM CaCl2) for 15 min at room temperature in the dark. Apoptotic cells were quantified using a BD Accuri C6 Flow Cytometer (Becton, Dickinson and Company, Clifton, NJ, USA). Statistical analysis was done using Flowjo 7.6.1 software. Both early apoptotic (AnnexinV-positive, PI-negative) and late apoptotic (double positive of Annexin V and PI) cells were detected.

[6] = Cytotoxicity test (MTT) on 293T cells; settings: human, 293T human kidney epithelial cells
Description: The cytotoxic activity in vitro was measured by the colorimetric MTT assay. […] For the cytotoxicity assay, 20 μL of MTT (5 mg/mL) was added per well 4 h before the end of the incubation. After removing the supernatant, 200 μL DMSO was added to dissolve the formazan crystals. The absorbance at λ 570 nm was read on an LX300 Epson Diagnostic microplate reader, untreated cells were used as negative controls.

[7] = system: A549 cells; assay: MTT antiproliferative assay, A549; assay type: cell-based, human; settings: Homo sapiens, read-out: In vitro antiproliferative activity IC50, A549
Description: as §1

Chain of epidermal growth factor receptor (EGFR) (P00533 25-1210): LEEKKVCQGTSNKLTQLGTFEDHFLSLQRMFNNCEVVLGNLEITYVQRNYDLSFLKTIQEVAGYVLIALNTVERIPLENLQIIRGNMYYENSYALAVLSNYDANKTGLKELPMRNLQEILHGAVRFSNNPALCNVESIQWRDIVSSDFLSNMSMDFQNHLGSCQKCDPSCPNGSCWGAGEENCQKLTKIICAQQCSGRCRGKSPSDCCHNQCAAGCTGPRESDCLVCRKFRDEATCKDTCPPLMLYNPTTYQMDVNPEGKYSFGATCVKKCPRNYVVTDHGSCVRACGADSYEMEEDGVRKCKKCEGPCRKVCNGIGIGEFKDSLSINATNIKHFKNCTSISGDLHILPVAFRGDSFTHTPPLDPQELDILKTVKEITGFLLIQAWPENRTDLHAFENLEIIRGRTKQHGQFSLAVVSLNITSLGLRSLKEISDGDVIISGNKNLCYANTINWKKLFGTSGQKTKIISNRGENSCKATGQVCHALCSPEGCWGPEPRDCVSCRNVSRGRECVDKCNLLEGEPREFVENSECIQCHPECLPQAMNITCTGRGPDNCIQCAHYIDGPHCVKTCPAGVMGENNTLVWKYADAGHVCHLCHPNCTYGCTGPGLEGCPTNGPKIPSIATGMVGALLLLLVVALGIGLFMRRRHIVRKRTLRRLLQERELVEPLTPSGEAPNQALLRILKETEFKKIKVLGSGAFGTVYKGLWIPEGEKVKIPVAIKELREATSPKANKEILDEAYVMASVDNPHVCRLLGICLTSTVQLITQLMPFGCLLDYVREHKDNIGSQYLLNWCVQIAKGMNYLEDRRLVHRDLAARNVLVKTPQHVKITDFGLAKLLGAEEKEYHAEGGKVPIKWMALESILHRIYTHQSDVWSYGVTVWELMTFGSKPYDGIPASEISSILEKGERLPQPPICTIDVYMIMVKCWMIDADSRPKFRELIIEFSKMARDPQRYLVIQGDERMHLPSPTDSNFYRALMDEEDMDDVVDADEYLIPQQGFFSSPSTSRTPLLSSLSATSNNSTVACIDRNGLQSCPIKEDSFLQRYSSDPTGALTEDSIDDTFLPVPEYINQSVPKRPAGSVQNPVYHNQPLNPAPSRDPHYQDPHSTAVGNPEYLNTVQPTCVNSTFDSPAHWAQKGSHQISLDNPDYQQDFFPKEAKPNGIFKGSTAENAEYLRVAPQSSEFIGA

IC50 [1]: 80 nM | IC50 [2]: 290 nM | IC50 [3]: 210 nM | melting point: 241 to 243 °C | IC50 [4]: 150 nM | IC50 [7]: 460 nM
Structure (SMILES): COc1ccc(/C=N/NC(=O)c2ccc(N3N=C(c4ccc(C)cc4)CC3c3ccc4ccccc4c3)cc2)cc1 (centres unmarked) [Compound H20, (E)-N′-(4-Methoxybenzylidene)-4-(5-(naphthalen-2-yl)-3-(p-tolyl)-4,5-dihydro-1H-pyrazol-1-yl)benzo-hydrazide]
percentage of cell apoptosis ([5]; 2.0 μM): 28.7% | percentage of cell apoptosis ([5]; 4.0 μM): 34.9% | percentage of cell apoptosis ([5]; 6.0 μM): 47.2% | percentage of cell apoptosis ([5]; 8.0 μM): 58.12% | CC50 at 24 h [6]: 89900 nM
